From patent US10073097B2, “Diagnostic assays and methods of treating pneumonia, sepsis and systemic inflammatory response syndrome” (priority 2012, dated 2018) come the findings set out here.

“Also recorded” adds a separate entry of the source. Residues, ends and D or L forms follow the SMILES beside them. *: point of attachment. Cbz = O=C(OCc1ccccc1)*; CH2F = FC*

One assay has as its system C57BL/6 mice. The experiment in a line: Intraperitoneal treatment of mice with TGA, LPS or PepG: peritoneal neutrophil recruitment and NDMP generation. It is filed as in vivo. As to conditions: for neutrophil recruitment and NDMP generation/accumulation in the peritoneum: i.p. injection, peritoneal lavage 24 H after 3% TGA; for # NDMPs: peritoneal NDMPs after treatment; for # NDMPs / # Neuts: 3% TGA 1 mL i.p., PepG 1 mg i.p., LPS 100 μg i.p., CLP 75% ligation/23 gauge puncture; for # Neuts: peritoneal neutrophils after treatment. As to the method: Low-endotoxin NDMPs were generated and used to assess host response during sepsis. More specifically, mice were treated with intraperitoneal injections of 3% thioglycolate (hereinafter, “TGA”), LPS, or petidylglycan (hereinafter “PepG”). Peritoneal neutrophil recruitment, NDMPs, and endotoxin associated with NDMPs were quantified.
Experimental Protocol. The ability of TGA to generate microparticles in vivo was investigated. Male C57BL/6 mice between 6 and 8 weeks of age (about 20 to 28 g) were injected in the peritoneum with 1 mL 3% thioglycolate (Sigma, St. Louis, Mo.) or with vehicle. Peritoneal lavage was performed 24 H after injection. Peritoneal cells were pelleted after a 10-minute 450×g centrifugation. The supernatant was then centrifuged for 10 minutes at 9,900×g to remove platelets. The platelet-free supernatant was centrifuged for 20 minutes at 16,000×g in order to pellet MPs. The MP pellet was resuspended in 500 μL sterile PBS and centrifuged for 20 minutes at 16,000×g. The MP pellet was then resuspended in 100 μL sterile PBS for analysis.
Analysis of cell surface antigen expression was performed on peritoneal lavage fluid. Flow cytometry data acquisition and analysis were performed on an LSR II using FACS Diva software (BD Biosciences). Antibodies used included: Ly-6G (Clone: 1A8, BioLegend), LY-6C (Clone: AL-21, BD Biosciences), CD11b (Clone: M1/70, BioLegend), Ter-119 (Clone: Ter-119, BioLegend), CD41 (Clone: MWReg30, BioLegend), CD105 (Clone: MJ7/18, BioLegend), Annexin V (BioLegend), and counting beads (Invitrogen, Grand Island, N.Y.). As shown in FIG. 19(A), forward and side scatter flow cytometry were initially performed on the lavage to both characterize and enumerate microparticles. A gate was created using 0.3-1.1 μm beads to isolate the MPs in the sample.
Vehicle mice and TGA-treated mice were stained with neutrophil specific Ly6G and annexinV antibodies. Total NDMPs from TGA-treated mice and vehicle mice were then enumerated.

The next assay relates to peritoneal cells. The experiment in a line: NDMP generation by peritoneal cells collected 24 H after TGA treatment, cultured with agonists or inhibitors. It is filed as cell-based, mice. As to conditions: peritoneal cells 24 H after 3% TGA; for NDMP numbers compared to cells cultured without agent: 8-Br-cAMP 100 μM, H89 20 μM, 6-Bnz-cAMP 100 μM, 8-CPT-2Me-cAMP 100 μM, Y27632 30 μM, PGE2 1 μM, 24 H; for decrease in NDMP generation when compared to cells cultured without inhibitor: ML7 250 μM, Z-VAD-FMK 200 μM, Z-IETD-FMK 30 μM, flow cytometry. As to the method: Experimental Protocol. A biochemical pathway for NDMP formation was investigated. Specifically, proteins associated with F-actin were investigated, as F-actin rearrangement is a terminal step in apoptosis. The role of myosin light chain kinase (hereinafter “MLC K”) in NDMP generation was initially investigated. Peritoneal cells were isolated from peritoneal lavage 24 H after 1 mL 3% TGA injection. Peritoneal cells were cultured with one of the following agonists or inhibitors overnight in a CO2 incubator: 250 μM ML7, a MLCK inhibitor, (Tocris, Bristol, UK), 200 μM Z-VAD-FMK, a caspase 3 inhibitor, (Tocris), 30 μM Z-IETD-FMK, a caspase 8 inhibitor, (Tocris), or 30 μM Z-LEHD-FMK, or a caspase 9 inhibitor, (Tocris). Cells and MPs were collected 24 H following incubation and analyzed using flow cytometry as previously described.
Statistical comparisons were performed using Student t Test (two groups), or one-way ANOVA with Holm-Sidak post-hoc test (more than two groups) using StatView 3.5 (SAS Institute, Cary, N.C.). The mean and standard error of the mean were calculated in experiments containing multiple data points. A value of p≤0.05 was considered statistically significant.
Experimental Protocol. Elucidation of potential signaling pathways involved in NDMP formation was studied. Peritoneal cells were isolated from peritoneal lavage 24 H after 1 mL 3% TGA injection. […] Cells and MPs were collected 24 H following incubation and analyzed using flow cytometry as previously described.
Background: Flow cytometry measures light scatter and fluorescence of single cells or particles in a stream.

The test system of the next assay is Mouse neutrophils. Put plainly: NDMP generation by mouse bone marrow neutrophils treated with TNF-α with or without inhibitors. It is filed as cell-based. Particulars: for NDMPs after TNF-α plus caspase 8 inhibitor vs TNF-α alone: WT neutrophils, 25 ng/mL rhTNF-α (TNFr1) or rmTNF-α (TNFr1 and TNFr2). From the text: Materials and Methods. Male C57BL/6 and TNFr1 KO (stock number: 003242) mice between 6 and 8 weeks of age were obtained from Jackson Labs (Bar Harbor, Me.). Mouse and human TNF-α Recombinant Protein (rmTNF-α and rhTNF-α, respectively) were purchased from Preprotech (Rocky Hill, N.J.). NF-κB inhibitor (BAY 11-7085) and Caspase 8 inhibitor (Z-IETD-FMK) were purchased from R&D systems (Minneapolis, Minn.). The pharmacological agents were solubilized in DMSO (American Bioanalytical, Natick, Mass.). The amount of DMSO was consistent in all samples groups. Neutrophil isolation. Mouse neutrophils from bone marrow were isolated from C57B1/6 mice as previously described. The femurs and tibias were flushed with Hanks' Balanced Salt Solution without calcium & Magnesium (HBSS) (Mediatech, Inc. Manassas, Va., USA). Bone marrow particulate was disaggregated and filtered in a 70 micron filter, then centrifuged at 400×g for 10 min at 23° C. The cells in the pellet were resuspended in HBSS, placed on a 55% Percoll gradient, and centrigued at 100×g for 30 min at 23° C. The pellet was washed once more. The final neutrophil preparation was re-suspended in HBSS. The purity and viability of the neutrophils (90% purity >99% viability, respectively) was determined by flow cytometry. Neutrophil purity was assessed by flow cytometry after cell staining with fluorescently conjugated antibodies to Ly-6G, CD19, CD3 and F4/80 with >99% of the cells negative for F4/80 and CD3. The main cell contaminant in this preparation was due to B cells. Further purification was not conducted by centriguation due to risk of non-specific neutrophil activation or by magnetic beads due to microparticle-sized contaminants introduced by the beads themselves.
Microparticle Generation and Analysis. Isolated neutrophils from bone marrow preparation were plated and cultured for the indicated time at 37° C. with stated treatments. The cell/micropartocle mixture was labeled for Ly-6G and Annexin V without manipulation as previously described. […] Neutrophil derived microparticle numbers were assessed using the neutrophil specific marker, Ly-6G (Clone: 1A8, BD Pharmingen, San Diego, Calif., United States); and Annexin V (BD Pharmingen). […]
Statistical Analysis. […] The mean and standard error of the mean were calculated in experiments containing multiple data points. […]
Using flow cytometry, forward- and side-channels were set to analyze particles using 0.5-, 0.9-, and 3.0-μm latex beads for calibration as previously described (FIG. 22A). […] To enumerate NDMPs, neutrophil and NDMP mixture were analyzed with the neutrophil-specific marker, Ly6G, and the apoptosis marker, annexin V. Vesicles within the 0.3-1.0 μm range that expressed both Ly6G and phosphatidylserine were identified as NDMPs. […]

The test system of assay [1] is peritoneal cells isolated from septic mice. Put plainly: In vitro NDMP generation by peritoneal cells isolated from septic (CLP) mice. It is filed as cell-based. As to the method:
Experimental Protocol. Peritoneal lavage cells from mice made septic by cecal ligation and puncture were isolated. The cells were then incubated with or without lipopolysaccharide (hereinafter “LPS”, 100 ng/mL) for […]. MPs from these cultures were then isolated, quantified by bicinchoninic acid assay (hereinafter, “BCA”), and analyzed by fluorescence-activated cell sorting (hereinafter “FACS”).
Experimental Protocol. Peritoneal cells were isolated from septic mice 24 H after CLP. The isolated peritoneal cells were incubated with PBS or 100 ng/mL LPS for 24 H. Samples were analyzed using LSR II flow cytometer and FACS Diva software (BD Biosciences). As shown in FIG. 17(A), latex beads of a predetermined size were used to set the forward and side scatter voltages to best distinguish particles ranging from […].
Experimental Protocol. Signaling intermediates required for NDMP formation are largely unexplored. cAMP was targeted as a potential signaling mechanism involved in NDMP formation. Peritoneal cells were isolated 24 H after CLP surgeries. […] After 24 H, NDMPs were enumerated and characterized by flow cytometry.

On to peptidoglycan [PepG], for which, in the assay with C57BL/6 mice, the “neutrophil recruitment and NDMP generation/accumulation in the peritoneum” value was “resulted in neutrophil recruitment and NDMP generation”; the “# NDMPs” value is reported as 3.0 ×10^3; the “# Neuts” value is 2.0 ×10^6.

`Cl.Cl.O=S(=O)(NCCNC/C=C/c1ccc(Br)cc1)c1cccc2cnccc12` [H89]: the “NDMP numbers compared to cells cultured without agent” value in the assay with peritoneal cells is recorded as “did not”.

Turning to `CCCCC[C@H](O)/C=C/[C@H]1[C@H](O)CC(=O)[C@@H]1C/C=C\CCCC(=O)O` [PGE2, Prostaglandin E2], in the assay with peritoneal cells, the “NDMP numbers compared to cells cultured without agent” value is on record as “decrease in the total number of NDMPs”.

As to `COC(=O)C[C@H](NC(=O)[C@H](C)NC(=O)[C@@H](NC(=O)OCc1ccccc1)C(C)C)C(=O)CF` [Z-VAD-FMK] (Cbz-Val-Ala-Asp(OMe)-CH2F), in the assay with peritoneal cells (24 H culture), the “decrease in NDMP generation when compared to cells cultured without inhibitor” value (“decrease … to cells cultured without inhibitor” for short) is reported as 37%.

With `CC[C@H](C)[C@H](NC(=O)OCc1ccccc1)C(=O)N[C@@H](CCC(=O)OC)C(=O)N[C@H](C(=O)N[C@@H](CC(=O)OC)C(=O)CF)[C@@H](C)O` [Z-IETD-FMK] (Cbz-IE(OMe)TD(OMe)-CH2F), in the assay on peritoneal cells (24 H culture), the “decrease … to cells cultured without inhibitor” value stood at 37%. For the same compound, the “NDMPs after TNF-α plus caspase 8 inhibitor vs TNF-α alone” value in the assay on Mouse neutrophils (30 μM Z-IETD-FMK, 1 h, listed as Caspase 8 inhibitor) is “sharply decreased but not entirely eliminated”; with Mouse neutrophils (30 μM Z-IETD-FMK, 1 h, listed as caspase 8 inhibitor), “significant decrease in NDMPs”. Moreover, the “microparticle generation after TNF-α plus caspase 8 inhibitor, only TNFr2 activated” value in the assay with Mouse neutrophils (neutrophils from TNFr1−/− mice, 25 ng/mL rmTNF-α, 30 μM Z-IETD-FMK, 1 h, listed as Caspase 8 inhibitor) is “did not alter NDMP numbers; also recorded: no decrease in microparticle generation”.

thioglycolate [3% TGA]: in the assay with C57BL/6 mice, the “neutrophil recruitment and NDMP generation/accumulation in the peritoneum” value was “greatest number of low endotoxin NDMPs”; the “# NDMPs” value is given as 35.1 ×10^3; the “# Neuts” value is listed as 6.9 ×10^6. Further, the “neutrophil recruitment and NDMP generation/accumulation in the peritoneum” value with C57BL/6 mice (listed as TGA) is “resulted in neutrophil recruitment and NDMP generation; also recorded: robust accumulation of NDMPs”.

Turning to `CC(C)(C)c1ccc(S(=O)(=O)/C=C/C#N)cc1` [BAY 11-7085], the “NDMP generation after activation of TNFr1, TNFr2 or both” value in the assay with Mouse neutrophils (WT or TNFr1−/− neutrophils, 25 ng/mL rmTNF-α or rhTNF-α, 20 μM BAY 11-7085, 1 h) is listed as “completely abrogates NDMP generation”.

For the compound lipopolysaccharide [LPS], the “NDMP formation from peritoneal cells” value in assay [1] (LPS 100 ng/mL vs PBS, 24 H, cells isolated 24 H after CLP) is given as “enhance NDMP formation”. Moreover, in assay [1] (LPS 100 ng/mL, 18 H, peritoneal lavage cells of CLP mice), the “increase in NDMPs from LPS-treated cells compared to spontaneous NDMP generation” value is listed as around 60%. Also, in the assay on C57BL/6 mice, the “neutrophil recruitment and NDMP generation/accumulation in the peritoneum” value was “resulted in neutrophil recruitment and NDMP generation”; the “# NDMPs” value is on record as 2.4 ×10^3; the “# Neuts” value is 0.16 ×10^6.

As to `O=C(Nc1ncnc2c1ncn2[C@@H]1O[C@@H]2COP(=O)(O)OC2C1O)c1ccccc1` (stereo in doubt) [6-Bnz-cAMP], the “NDMP numbers compared to cells cultured without agent” value with peritoneal cells was “inhibited NDMP formation”.

Consider `COC(=O)CC[C@H](NC(=O)[C@H](CC(C)C)NC(=O)OCc1ccccc1)C(=O)N[C@@H](Cc1cnc[nH]1)C(=O)N[C@@H](CC(=O)OC)C(=O)CF` [Z-LEHD-FMK] (Cbz-LE(OMe)HD(OMe)-CH2F), for which the “NDMP generation compared to cells cultured without inhibitor” value with peritoneal cells (Z-LEHD-FMK 30 μM, 24 H culture) is listed as “no significant difference”.

In the case of `C[C@@H](N)[C@H]1CC[C@H](C(=O)Nc2ccncc2)CC1` [Y27632], the “NDMP numbers compared to cells cultured without agent” value with peritoneal cells is “decrease in the total number of NDMPs”.

Turning to `CO[C@@H]1[C@@H]2OP(=O)(O)OC[C@H]2O[C@H]1n1c(Sc2ccc(Cl)cc2)nc2c(N)ncnc21` [EPAC, 8-CPT-2Me-cAMP], in the assay with peritoneal cells, the “NDMP numbers compared to cells cultured without agent” value was “did not affect NDMP numbers”.

Consider `Cl.O=S(=O)(c1cccc2c(I)cccc12)N1CCCNCC1` [ML7], for which the “decrease … to cells cultured without inhibitor” value in the assay with peritoneal cells (24 H culture) is given as 75%.
